Data reported in ChEMBL document CHEMBL3098004, “Asymmetric synthesis and receptor activity of chiral simplified resiniferatoxin (sRTX) analogues as transient receptor potential vanilloid 1 (TRPV1) ligands” (Bioorg Med Chem Lett, 2014).

What was measured:
Format in all cases: cell-based
[1] = target: T1, Transient receptor potential cation channel subfamily V member 1 (Homo sapiens, UniProt Q8NER1); experiment: Displacement of [3H]RTX from human TRPV1 expressed in CHO cells after 60 mins by liquid scintillation counting analysis
[2] = target: T1, Transient receptor potential cation channel subfamily V member 1; experiment: Antagonist activity at human TRPV1 expressed in CHO cells assessed as inhibition of RTX-induced 45Ca2+ uptake after 20 mins by liquid scintillation counting analysis
[3] = target: T1, Transient receptor potential cation channel subfamily V member 1; experiment: Agonist activity at human TRPV1 expressed in CHO cells assessed as 45Ca2+ uptake after 20 mins by liquid scintillation counting analysis

T1 sequence (Q8NER1 whole entry): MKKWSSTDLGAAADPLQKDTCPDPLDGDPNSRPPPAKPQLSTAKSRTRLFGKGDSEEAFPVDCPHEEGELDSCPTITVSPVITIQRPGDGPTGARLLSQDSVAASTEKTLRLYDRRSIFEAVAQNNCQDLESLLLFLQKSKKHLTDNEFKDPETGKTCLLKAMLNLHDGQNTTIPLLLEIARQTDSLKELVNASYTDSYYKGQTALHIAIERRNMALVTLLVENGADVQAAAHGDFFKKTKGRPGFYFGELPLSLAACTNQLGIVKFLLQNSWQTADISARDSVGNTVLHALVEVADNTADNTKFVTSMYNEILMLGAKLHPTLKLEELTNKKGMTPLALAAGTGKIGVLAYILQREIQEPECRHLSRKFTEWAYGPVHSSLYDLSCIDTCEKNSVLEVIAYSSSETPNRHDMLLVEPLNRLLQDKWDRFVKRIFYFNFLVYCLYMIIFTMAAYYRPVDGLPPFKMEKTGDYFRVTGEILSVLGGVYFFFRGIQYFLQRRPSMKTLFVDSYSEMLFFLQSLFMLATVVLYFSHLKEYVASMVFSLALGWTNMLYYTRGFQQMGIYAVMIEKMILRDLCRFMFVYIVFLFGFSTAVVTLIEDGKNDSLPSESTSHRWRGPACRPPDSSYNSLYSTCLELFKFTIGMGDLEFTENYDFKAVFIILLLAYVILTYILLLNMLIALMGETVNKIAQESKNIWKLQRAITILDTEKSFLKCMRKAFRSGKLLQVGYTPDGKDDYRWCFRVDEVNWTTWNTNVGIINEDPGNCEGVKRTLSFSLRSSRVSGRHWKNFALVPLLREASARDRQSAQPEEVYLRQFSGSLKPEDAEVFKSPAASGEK

COc1cc(CNC(=S)NC[C@H](COC(=O)C(C)(C)C)Cc2ccc(C(C)(C)C)cc2)ccc1O
Ki [1]: 0.00306 µM | Ki ([2]; cho): Not Active | EC50 ([3]; read-out: EC50): 0.00099 µM

COc1cc(CNC(=S)NC[C@@H](COC(=O)C(C)(C)C)Cc2ccc(C(C)(C)C)cc2)ccc1O
Ki [1]: 0.00658 µM | Ki ([2]; cho): Not Active | EC50 ([3]; read-out: EC50): 0.00955 µM

CC(C)(C)C(=O)OC[C@@H](CNC(=S)NCc1ccc(NS(C)(=O)=O)c(F)c1)Cc1ccc(C(C)(C)C)cc1
Ki [1]: 0.0172 µM | Ki ([2]; read-out: Ki): 0.094 µM | EC50 ([3]; cho): Not Active

CC(C)(C)C(=O)OC[C@H](CNC(=S)NCc1ccc(NS(C)(=O)=O)c(F)c1)Cc1ccc(C(C)(C)C)cc1
Ki [1]: 0.063 µM | Ki ([2]; read-out: Ki): 0.161 µM | EC50 ([3]; cho): Not Active

CC(C)(C)C(=O)OCC(CNC(=S)NCc1ccc(NS(C)(=O)=O)c(F)c1)Cc1ccc(C(C)(C)C)cc1 (racemic)
Ki [1]: 0.023 µM | Ki ([2]; read-out: Ki): 0.122 µM | EC50 ([3]; cho): Not Active

COc1cc(CNC(=S)NCC(COC(=O)C(C)(C)C)Cc2ccc(C(C)(C)C)cc2)ccc1O (racemic)
Ki [1]: 0.0061 µM | Ki ([2]; cho): Not Active | EC50 ([3]; read-out: EC50): 0.00134 µM

C=C(C)[C@]12C[C@@H](C)[C@@]34O[C@](Cc5ccccc5)(O[C@@H]1[C@@H]3C=C(COC(=O)Cc1cc(I)c(O)c(OC)c1)C[C@]1(O)C(=O)C(C)=C[C@@H]41)O2 [IODORESINIFERATOXIN]
EC50 ([3]; cho): Not Active

C=C(C)[C@]12C[C@@H](C)[C@@]34O[C@](Cc5ccccc5)(O[C@@H]1[C@@H]3C=C(COC(=O)Cc1ccc(O)c(OC)c1)C[C@]1(O)C(=O)C(C)=C[C@@H]41)O2 [RESINIFERATOXIN]
Ki ([2]; cho): Not Active
